Reference: US11244760B2, “Prediction device based on inter-organ cross talk system” (KARYDO THERAPEUTIX, INC., priority 2015, dated 2022)
“And” between values parts separate entries of the source, which are not always exact repeats. Equal entries are not always repeated.

Key:
Saa1 = test: D-iOrgans real-time PCR, STZ/Control relative expression, Saa1; type: in vivo, mouse; conditions: liver of the STZ administration mice
Procedure: (§1) 1 μg of total RNA obtained from each tissue was used as a template for cDNA synthesis, and cDNA was synthesized using Oligo dT20 primer according to the standard protocol of Superscript III First-Strand Synthesis Supermix (Life Technologies). After the synthesized cDNA was diluted 20-fold with 10-fold diluted TE buffer (10 mM Tris-HCl, pH 8.0, 0.1 mM EDTA), real-time PCR was performed with a […] (Roche) according to the standard protocol of LightCycler 480 SYBR Green I Master (Roche) and Cp values were measured. The relative expression level of each gene relative to the reference gene was calculated by comparing the Cp value obtained for each gene with the Cp value for β2-microglobulin (B2m) or Maea as a reference gene, and MI/Sham was determined. However, with the primer set for Hba-a, Hba-a1 and Hba-a2 cannot be distinguished in PCR, and with the primer set for Hbb-b, Hbb-bs, and Hbb-bt cannot be distinguished in PCR. […]
(§2) Real-time PCR was conducted according to the procedure described in 1-4 (4) of “I. iOrgans” to measure Cp values. The relative expression level of each gene relative to the reference gene was calculated by comparing the Cp value obtained for each gene with the Cp value for β2-microglobulin (B2m) or Maea as a reference gene to, and STZ/Control was determined. […]

[1] = Blood glucose level after administration of STZ (simple blood glucose meter, tail vein); type: in vivo, mouse; conditions: STZ 75 mg/kg intraperitoneally for 3 consecutive days, 4-week-old male C57BL/6NCr Slc mice, fasted overnight; individual animals
Procedure: (§3) 0.01% citrate buffer solution (pH 4.5) of streptozotocin (STZ) was intraperitoneally administered to 4-week-old male C57BL/6NCr Slc mice in an amount of 75 mg/kg in terms of STZ for 3 consecutive days (administered solution amount: 10 mL/kg). 0.01% citrate buffer solution (pH 4.5), which is a solvent, was intraperitoneally administered to the control group for 3 consecutive days (administered solution amount: 10 mL/kg). The animals from which the organs and tissue were to be collected were fasted overnight from the day before dissection. On the day of dissection, the tail vein of each mouse was cut, and the blood glucose level was measured with a simple blood glucose meter. On the following day, the mice were euthanized by cervical dislocation without anesthesia, and the organs and tissue were collected. After the wet weights of the collected organs and tissue were measured, the organs and tissue were rapidly frozen in liquid nitrogen and stored at −80° C.

[2] = Body weight at dissection after administration of STZ; type: in vivo, mouse; conditions: STZ 75 mg/kg intraperitoneally for 3 consecutive days, 4-week-old male C57BL/6NCr Slc mice; individual animals
Procedure: as §3

[3] = administered to a mouse for a week or more; cited from earlier work
Hamp = test: D-iOrgans real-time PCR, STZ/Control relative expression, Hamp; type: in vivo, mouse
Procedure: as §1, §2

CN(N=O)C(=O)N[C@H]1C(O)O[C@H](CO)[C@@H](O)[C@@H]1O (mixture of isomers) [STZ, streptozotocin]
Expression of Saa1 in the liver (STZ/Control) (Saa1): increase
Blood glucose [1]: 65 mg/dL and 83 mg/dL and 42 mg/dL
Body weight at dissection [2]: 12.8 g (2×) and 10.3 g
Glycemic state after long administration [3]: becomes hyperglycemic
Expression of Hamp in the heart (STZ/Control) (Hamp; heart, STZ administration mice, day after 3 days of STZ): increase
Predicted side effect in the heart from Hamp expression (Hamp; inferred from known function of Hamp (iron metabolism)): decrease the amount of iron in cardiac cells
